We go through six molecules from patent US9101613B2, “Methods for treating neurological disease” (Neurim Pharmaceuticals (1991) Ltd., priority 2006, dated 2015).

The test system of one experiment is mice. Put plainly: Rotarod assay, interaction with diazepam.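 Note: Success means running more than 120 min on the rod.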 Format: in vivo. The conditions noted are these: Diazepam 1.5 mg/kg p.o. + Vehicle i.p.; 15 rpm. On the procedure: The incidences of animals running more than […] on the rotating rod were noted, and significances were calculated by non-parametric x^2 test. 8 mice/group were used.
The rotarod apparatus is divided into five test zones, so that up to five mice may be tested at the same time. The rod has been specially machined to provide a suitable grip for the animal. The diameter of the rod is 3.5 cm. The rotation speed was 15 rpm. When the animal falls off the rotating rod, it presses a button to record automatically the time spent on the rod. On the day before the experiment the mice were trained to run on the rod rotating with 15 rpm. Diazepam was administered orally 60 min before the rotarod assay, test substances were administered intraperitoneally 15 min before testing.
(The rotarod test checks motor coordination on a turning rod.)

Another experiment concerns the target T1, MT-1 receptor (Homo sapiens, UniProt P48039).
T1 construct: expressed in transfected cells; host or cells: CHP-K1 (Chinese hamster ovary) cells (so in the source)
Put plainly: 125I-melatonin binding in membranes of CHP-K1 cells, MT-1. Conditions: 0.05 nM 125I-melatonin; for IC50 / Ki: 25° C., 3 hours; for IC50: read-out: MT-1 receptor binding IC50; for Ki: read-out: MT-1 receptor binding KI; for inhibition at 10 µM: read-out: MT-1 receptor binding % inhibition by 10 μM. On the procedure: (§1) Aliquots of suspended membranes of human recombinant CHP-K1 (Chinese hamster ovary) cells stably expressing human melatonin-1 or melatonin-2 (MT-1 or MT-2) receptors or of hamster brain (MT-3) were incubated at 25° C. with 0.05 nM ^125I-melatonin in buffer (25 mM HEPES, pH 7.4, 5 mM MgCl2, 1 mM CaCl2, 0.5% BSA) or with 0.1 nM for MT-3 alone or in the presence of 1 nM, 10 nM, 0.1 μM, 1 μM and 10 μM of test substances N-[2-(5-methoxy-indol-3-yl)-ethyl]-commenamide, N-[2-(5-methoxy-indol-3-yl)-ethyl]-comanilamide, N-[2-(5-methoxy-indol-3-yl)-ethyl]-coumalylamide, N-[2-(5-methoxy-indol-3-yl)-ethyl]-2-methoxy-commenamide, N-[2-(5-methoxy-indol-3-yl)-ethyl]-chelidonamide, O-[2-(5-methoxy-indol-3-yl)-ethyl]-comenic ester, N-[2-(5-methoxy-indol-3-yl)-ethyl]-2-Pyrone-6-carboxamide and N-[2-(2-bromo-5-methoxy-indol-3-yl)-ethyl]-coumalylamide for 3 hours for MT-1, 4 hours for MT-2 and 30 min for MT-3. The binding reaction was terminated and the membranes were washed with 4 ml of ice-cold HEPES buffer by vacuum filtration. Membranes were then collected, and the filters containing the bound ^125I-melatonin were assayed for the amount of radioactivity in a […]. Non-specific binding was evaluated using a reaction with 1 μM 6-chloromelatonin (MT-1 and MT-2) or 30 μM melatonin (MT-3).

The target of another experiment is T2, MT-2 receptor (Homo sapiens, UniProt P49286).
T2 construct: expressed in transfected cells; host or cells: CHP-K1 (Chinese hamster ovary) cells (so in the source)
T2 sequence (P49286 1-362): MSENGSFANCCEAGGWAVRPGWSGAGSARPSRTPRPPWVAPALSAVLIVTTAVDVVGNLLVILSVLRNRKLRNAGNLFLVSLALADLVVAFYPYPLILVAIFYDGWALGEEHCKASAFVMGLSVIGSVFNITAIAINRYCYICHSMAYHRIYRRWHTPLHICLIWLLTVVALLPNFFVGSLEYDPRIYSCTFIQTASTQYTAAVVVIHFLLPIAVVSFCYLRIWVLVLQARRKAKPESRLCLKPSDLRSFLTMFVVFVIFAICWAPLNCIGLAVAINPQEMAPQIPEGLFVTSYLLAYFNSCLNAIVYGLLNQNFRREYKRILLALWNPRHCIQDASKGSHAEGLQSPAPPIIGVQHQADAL
Nature of the experiment: 125I-melatonin binding in membranes of CHP-K1 cells, MT-2. Conditions: 0.05 nM 125I-melatonin; for IC50 / Ki: 25° C., 4 hours; for IC50: read-out: MT-2 receptor binding IC50; for Ki: read-out: MT-2 receptor binding KI; for inhibition at 10 µM: read-out: MT-2 receptor binding % inhibition by 10 μM. How it is done:
as §1

For another experiment, the system named is CD1 mice. Put plainly: Potentiation of hexobarbital-Na sleep time in mice. The experiment is classed as in vivo. How it is done:
CD1 mice were divided randomly into groups of seven mice each. The mice in each group were administered intraperitoneally a dose of one of the following: 100 mg/kg of one of test substances O-[2-(5-methoxy-indol-3-yl)-ethyl]-comenic ester, N-[2-(5-methoxyindol-3-yl)-ethyl]-commenamide, N-[2-(5-methoxy-indol-3-yl)-ethyl]-coumalylamide, N-[2-(5-methoxy-indol-3-yl)-ethyl]-chelidonamide, N-[2-(5-methoxy-indol-3-yl)-ethyl]-comanilamide or N-[2-(5-methoxy-indol-3-yl)-ethyl]-2-methoxy-commenamide in saline (0.1 ml/10 g body weight), or saline alone. Fifteen minutes later the mice received a dose of 50 mg/kg of hexobarbital-Na intravenously. Sleep time was measured in each animal as the time from loss to recovery of the righting reflex.

In the next experiment the test system is 3T3-L1 adipocytes. Put plainly: 2-[3H]-deoxy-d-glucose uptake in FFA-treated 3T3-L1 adipocyte model. Format: cell-based. On the procedure: Adipocytes were glucose-starved for 1 h in Hepes-salt buffer containing 2% FFA-free BSA. FFA (free fatty acids) were then added to the cells at the indicated concentrations (300 μM) for the indicated times (3 h). 10 min before the end of the FFA treatment, the cells were stimulated with insulin (20 nM)/melatonin (10 nM)/test compounds (10 nM) at 37° C. 2-[^3H]-deoxy-d-glucose at 1 μCi/mL and 0.1 mM unlabeled 2-deoxyglucose in KRP-HEPES buffer was added and cells were incubated for 10 min at room temperature. Non-specific glucose uptake was measured by parallel incubations in the presence of 10 μM cytochalasin B, which blocks transporter-mediated glucose uptake, and was subtracted from total uptake in each assay. Cells were then washed three times with ice-cold phosphate buffered saline (PBS) and solubilized in 1M NaOH for 20 minutes. The sample was then counted using a scintillation counter. 2-[^3H]-deoxy-d-glucose uptake was assayed in triplicates for each condition in at least 3 independent experiments. 2-[^3H]-deoxy-d-glucose uptake (counts per minute-cpm) are presented as mean+SE of triplicates in a representative experiment or results of three independent experiments. ANOVA test was used with significance of P<0.05 (Table 7).

Experiment [1] has as its system rat primary cortical neurons. Put plainly: Neurite outgrowth in rat primary cortical neurons. The experiment is classed as cell-based. Conditions: 5 days of culture. On the procedure: The aim of this study was to assess the potential effect of N-[2-(5-methoxy-indol-3-yl)-ethyl]-comanilamide (100 nM) after 5 days of culture on neurite outgrowth in rat primary cortical neurons. The study used three separate cultures (n=6 wells per condition); the mean value of the 3 cultures (+/−sem) was calculated.
Rat cortical neurons were cultured as described by Singer et al., 1999. Briefly pregnant female rats of 15 days gestation are killed by cervical dislocation (Rats Wistar; Janvier) and the fetuses removed from the uterus. The cortex are removed and placed in ice-cold medium of Leibovitz (L15; Invitrogen) containing 1% of Penicillin-Streptomycin (PS; Invitrogen) and 1% of bovine serum albumin (BSA; Sigma). Cortex are dissociated by trypsinisation for 20 min at 37° C. (Trypsin EDTA 1×; Invitrogen) diluted in PBS without calcium and magnesium. The reaction is stopped by the addition of Dulbecco's modified Eagle's medium (DMEM; Invitrogen) containing DNAase I grade II (0.1 mg/ml; Roche Diagnostic) and 10% of fetal calf serum (FCS; Invitrogen). Cells are then mechanically dissociated by 3 passages through a 10 ml pipette. Cells are then centrifuged at 180×g for 10 min at 10° C. The supernatant is discarded and the cells of pellet are re-suspended in a defined culture medium consisting of Neurobasal (Invitrogen) supplemented with B27 (2%; Invitrogen), L-glutamine (0.2 mM; Invitrogen) and 1% of PS solution with 10 ng/ml of Brain-derived neurotrophic factor (BDNF).
For the neurite outgrowth assay, the cells are seed with test compound A (at 100 nM) and reference compound (BDNF at 10 ng/ml used as reference control) on defined medium (Neurobasal supplemented with 2% of B27, 0.2 mM of L-glutamine and 1% of PS).
The cultures were done (a) without BDNF in order to analyse the neurotrophic effect of compounds alone and (b) with low BDNF concentration (0.5 ng/ml) in order to analyse the synergic neurotrophic effect of N-[2-(5-methoxy-indol-3-yl)-ethyl]-comanilamide with the growth factor.
After 5 days of culture in presence of N-[2-(5-methoxy-indol-3-yl)-ethyl]-comanilamide and reference, cells were fixed by a cool solution of ethanol (95%) and acetic acid (5%) for 10 min. After permeabilization with 0.1% of saponin, cells were incubated with monoclonal antibody anti microtubule associated protein 2 (MAP-2; Sigma). This antibody stains specifically cell bodies and neurite of neurons. […] Nuclei of neurons were labeled by a fluorescent marker (Hoechst solution, SIGMA). Per well, 20 pictures were taken using InCell Analyzer™ 1000 (GE Healthcare) with 20× magnification. All images were done in the same conditions. Analysis of the neuritis networks and neuron were assessed using Developer software (GE Healthcare). […]

T1 sequence (P48039 whole entry): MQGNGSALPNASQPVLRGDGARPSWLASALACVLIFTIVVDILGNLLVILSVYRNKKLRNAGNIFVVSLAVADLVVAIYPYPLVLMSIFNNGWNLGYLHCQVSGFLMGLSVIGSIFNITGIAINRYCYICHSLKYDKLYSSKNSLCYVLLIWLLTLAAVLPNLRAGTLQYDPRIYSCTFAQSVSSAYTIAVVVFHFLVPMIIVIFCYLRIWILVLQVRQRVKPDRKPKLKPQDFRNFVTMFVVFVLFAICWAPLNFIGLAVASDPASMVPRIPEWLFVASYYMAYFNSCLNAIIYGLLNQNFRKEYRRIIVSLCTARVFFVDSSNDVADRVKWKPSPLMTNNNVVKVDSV

`CN1C(=O)CN=C(c2ccccc2)c2cc(Cl)ccc21` [Diazepam, reference compound]: the “Incidence of performance (rotarod)” value in the experiment on mice is recorded as 6/8.

With `COc1ccc2[nH]c(Br)c(CCNC(=O)c3ccc(=O)oc3)c2c1` [N-[2-(2-bromo-5-methoxy-indol-3-yl)-ethyl]-coumalylamide], on MT-1 receptor, the IC50 turned out to be 2400 nM, the Ki worked out at 1250 nM and the inhibition at 10 µM amounted to 76%. Moreover, at MT-2 receptor, the IC50 was determined as 850 nM, the Ki was 441 nM and the inhibition at 10 µM stood at 89%.

`COc1ccc2[nH]cc(CCNC(=O)c3cccc(=O)o3)c2c1` [N-[2-(5-methoxy-indol-3-yl)-ethyl]-2-Pyrone-6-carboxamide]: at MT-1 receptor, the IC50 was 10100 nM, the Ki stood at 5240 nM and the inhibition at 10 µM came out at 50%. Moreover, on MT-2 receptor, the IC50 worked out at 5060 nM, the Ki amounted to 2630 nM and the inhibition at 10 µM worked out at 65%.

`COc1ccc2[nH]cc(CCOC(=O)c3cc(=O)c(O)co3)c2c1` [O-[2-(5-methoxy-indole-3-yl)-ethyl]-comenic ester]: the “effect on hexobarbital-Na narcosis time” value with CD1 mice (100 mg/kg i.p.) is “significantly increased the hexobarbital-Na narcosis time”. In the experiment on CD1 mice (100 mg/kg i.p. 15 min before 50 mg/kg hexobarbital-Na i.v.), the “Changes (%) vs. Vehicle (sleep time)” value was “+108%”. The “Mean Sleep Time-Treatment (min) ± SE” value in the experiment on CD1 mice (100 mg/kg i.p. 15 min before 50 mg/kg hexobarbital-Na i.v., loss to recovery of righting reflex) is 15.15 ± 6.02 min. Moreover, the “2-[3H]-deoxy-d-glucose uptake (cpm)” value in the experiment on 3T3-L1 adipocytes (Insulin 20 nM + FFA 300 μM (3 h) + substance 10 nM) is given as 1787 cpm. For the same molecule, the inhibition at 10 µM on MT-1 receptor was 47%. Further, at MT-2 receptor, the IC50 amounted to 1640 nM, the inhibition constant Ki came out at 850 nM and the inhibition at 10 µM amounted to 78%.

Consider Insulin, for which the “2-[3H]-deoxy-d-glucose uptake (cpm)” value in the experiment on 3T3-L1 adipocytes (Insulin (20 nM) alone, no FFA) was 1839 cpm.

B1: BDNF: Brain-derived neurotrophic factor, growth factor used as reference compound (protein, UniProt P23560 19-247, looked up)
Neurotrophic factor BDNF …: APMKEANIRGQGGLAYPGVRTHGTLESVNGPKAGSRGLTSLADTFEHVIEELLDEDQKVRPNEENNKDADLYTSRVMLSSQVPLEPPLLFLLEEYKNYLDAANMSMRVRRHSDPARRGELSVCDSISEWVTAADKKTAVDMSGGTVTVLEKVPVSKGQLKQYFYETKCNPMGYTKEGCRGIDKRHWNSQCRTTQSYVRALTMDSKKRIGWRFIRIDTSCVCTLTIKRGR
For the molecule B1, the “neurite length, % of control” value is on record as ~125 % of control in experiment [1] (BDNF 0.5 ng/ml alone) and ~153 % of control in experiment [1] (BDNF 10 ng/ml reference).

One may read the IC50 as the concentration that gives 50% inhibition. The term Ki denotes a dissociation constant, usually derived from enzyme kinetics or from competition with a known ligand. By inhibition is commonly meant the percentage by which the read-out fell short of the control.
